Converted amounts (≈) assume the structure as drawn. “And” between values parts separate entries of the source, which are not always exact repeats. Identical values can stand only once. Like-named read-outs stand apart in the source and are kept apart here.
Key:
KB-V1, drug resistant KB = assay: In vitro cytotoxicity, human tumor panel: KB-V1 with or without vinblastine; type: cell-based; conditions: for IC50: Homo sapiens, KB-V1, read-out: ED50 KB-V1−; for ED50 KB-V1+: drug resistant KB assessed in presence of vinblastine (1 μg/mL)
Description: (§1) Cytotoxicity assay. Compounds 1–9 were evaluated for cytotoxic activity against a panel of human cancer cell lines, including KB-V1 in the presence and absence of VLB, according to an established protocol (68).

Lu1, lung cancer = assay: In vitro cytotoxicity, human tumor panel: Lu1; type: cell-based; conditions: for IC50: Homo sapiens, read-out: ED50 Lu1
Description: as §1

[1] = tested on: SW626, human ovarian adenocarcinoma; assay: In vitro cytotoxicity, human tumor panel: SW626; type: cell-based; conditions: for IC50: SW626, read-out: ED50 SW626
Description: as §1

Col2, colon cancer = assay: In vitro cytotoxicity, human tumor panel: Col2; type: cell-based; conditions: for IC50: Homo sapiens, read-out: ED50 Col2
Description: as §1

[2] = tested on: LNCaP, hormone-dependent prostate cancer; assay: In vitro cytotoxicity, human tumor panel: LNCaP; type: cell-based; conditions: for IC50: Homo sapiens, LNCaP, read-out: ED50 LNCaP
Description: as §1

BC1, breast cancer = assay: In vitro cytotoxicity, human tumor panel: BC1; type: cell-based; conditions: for IC50: Homo sapiens, read-out: ED50 BCI
Description: as §1

[3] = tested on: KB, oral epidermoid carcinoma; assay: In vitro cytotoxicity, human tumor panel: KB; type: cell-based; conditions: for IC50: Homo sapiens, read-out: ED50 KB
Description: as §1

[4] = tested on: SKOV3 (ovarian adenocarcinoma); assay: Cytotoxicity in ovarian adenocarcinoma SKOV3 (pGp -ve); type: cell-based
Description: as §1

[5] = tested on: SKVLB (ovarian adenocarcinoma, multidrug resistance); assay: Multidrug resistance inhibition in SKVLB (pGp +ve); type: cell-based, human
CEM/VLB100 cells = assay: MDR reversal in drug-resistant human leukemia CEM/VLB100 cells; type: cell-based; conditions: Homo sapiens
Description: (§2) Cytotoxic potential. The cytotoxic potential of test substances with KB-3, KB-V1 and KB-8-5 cells was determined as described previously (24). Briefly, various concentrations of test compounds (dissolved in 10 μl of 10% DMSO) were transferred to 96-well plates, and 190 μl aliquots of cell suspensions (5×10^4 cells/ml) were added to each well. The plates then were incubated for 72 hours at 37° C. (100% humidity with a 5% CO2 atmosphere in air), and 100 μl of cold 20% aqueous trichloroacetic acid were added to the growth medium in each well to fix the cells. The cultures were incubated at 4° C. for 30 minutes, washed, air-dried, stained with sulforhodamine B solution, and washed with 1% acetic acid. […] In each case, a zero-day control was performed by adding an equivalent number of cells to several wells and incubating at 37° C. for 30 minutes, and processing as described above. Optical density values obtained with the zero-day control were subtracted, and cell survival, relative to control (solvent-treated) cultures, was calculated. The cytotoxic potential of the compounds with CEM and CEM/VLB100 cells was determined as described by Beck et al. (30). Cells were grown in 24-well plates at a density of 5–6×10^5 cells/ml. At 48 hours, the cell number was determined using a Coulter Counter, with a channelizer to distinguish cells from debris.

KB-V1 cells [6] = assay: Reversal of MDR, cell survival assay: KB-V1 with or without vinblastine; type: cell-based, human
Description: (§3) One part of a natural product drug discovery program involves monitoring the potential of plant extracts to reverse multiple drug resistance. […] To investigate the potential of plant extracts or compounds to reverse multidrug-resistance, KB-V1 cells are treated with different concentrations of plant extracts or compounds in the presence (1 μg/ml) or absence of vinblastine.
as §2

KB-8-5 cells [7] = assay: In vivo hollow fiber test: KB-8-5; design: species or system NCr nu/nu mice
Description: (§4) In vivo hollow fiber test. […] Confluent monolayers of KB-3, KB-V1 or KB-8-5 cells were harvested, collected by centrifugation and resuspended in conditioned medium at a concentration of 7.5×10^5 cells/ml.
(§5) Test compounds were administrated once daily by intraperitoneal injection from day 3–6 after implantation. Body weights were measure daily.
(§6) After incubating at 37° C. for 4 hours, the culture medium was aspirated and the samples were washed twice with normal saline containing 2.5% protamine sulfate solution by overnight incubation at 4° C. […] The formazan was extracted from each sample with DMSO (250 μl/well) for 4 hours at room temperature on a rotation platform.

KB-3 cells = assay: Growth inhibitory potential (sulforhodamine B cell survival assay): KB-3; type: cell-based; conditions: Homo sapiens, KB3, 72 h, read-out: IC50 KB-3
Description: as §3
Cytotoxic potential. The cytotoxic potential of test substances with KB-3, KB-V1 and KB-8-5 cells was determined as described previously (24). Briefly, various concentrations of test compounds (dissolved in 10 μl of 10% DMSO) were transferred to 96-well plates, and 190 μl aliquots of cell suspensions (5×10^4 cells/ml) were added to each well. The plates then were incubated for 72 hours at 37° C. (100% humidity with a 5% CO2 atmosphere in air), and 100 μl of cold 20% aqueous trichloroacetic acid were added to the growth medium in each well to fix the cells. The cultures were incubated at 4° C. for 30 minutes, washed, air-dried, stained with sulforhodamine B solution, and washed with 1% acetic acid. Finally, 200 μl of 10 mM Tris base were added to each well and the optical densities were determined at 515 nm utilizing an ELISA plate reader. In each case, a zero-day control was performed by adding an equivalent number of cells to several wells and incubating at 37° C. for 30 minutes, and processing as described above. Optical density values obtained with the zero-day control were subtracted, and cell survival, relative to control (solvent-treated) cultures, was calculated. The cytotoxic potential of the compounds with CEM and CEM/VLB100 cells was determined as described by Beck et al. (30). Cells were grown in 24-well plates at a density of 5–6×10^5 cells/ml. At 48 hours, the cell number was determined using a Coulter Counter, with a channelizer to distinguish cells from debris.

KB-8-5 cells [8] = assay: Reversal of MDR, cell survival assay: KB-8-5 with or without colchicine; type: cell-based, human; conditions: Homo sapiens
Description: as §2

KB-V1 cells [9] = assay: In vivo hollow fiber test: KB-V1; design: species or system NCr nu/nu mice
Description: as §4, §5, §6

[10] = drug-resistant KB assessed in the absence of vinblastine
[11] = Homo sapiens, SK-OV-3; read-out: IC50 SKOV3 (pGp − ve)
[12] = Homo sapiens, no adriamycin added, read-out: IC50 BSKVLB (pGp + ve)
[13] = summation of single-agent inhibitions
[14] = vinblastine 100 μg/kg + reversing agent 0.136 mmol/kg

Structure (SMILES): CN1[C@@H]2C[C@@H](OC(=O)Cc3ccccc3)C[C@H]1[C@H](O)[C@@H]2O [Compound 1, Tropane-3α,6β,7β-triol 3-phenylacetate]
- IC50 (KB-V1, drug resistant KB; [10]): > 20 µg/mL
- ED50 KB-V1+ (KB-V1, drug resistant KB): >20 µg/mL
- IC50 (Lu1, lung cancer): > 20 µg/mL
- IC50 [1]: > 20 µg/mL
- IC50 (Col2, colon cancer): > 20 µg/mL
- IC50 [2]: > 20 µg/mL
- melting point: 120 to 122 °C
- IC50 (BC1, breast cancer): > 20 µg/mL
- IC50 [3]: > 20 µg/mL

Structure (SMILES): COc1cc(C(=O)O[C@H]2C[C@H]3CC[C@@H](C2)N3C)cc(OC)c1OC [Compound 2, 1αH,5αH-Tropan-3α-yl 3,4,5-trimethoxy-benzoate]
- ED50 KB-V1+ (KB-V1, drug resistant KB): >20 µg/mL
- ED50 KB-V1− (KB-V1, drug resistant KB; [10]): >20 µg/mL
- ED50 Lu1 (Lu1, lung cancer): >20 µg/mL
- ED50 SW626 [1]: >20 µg/mL
- ED50 Col2 (Col2, colon cancer): >20 µg/mL
- ED50 LNCaP [2]: >20 µg/mL
- ED50 BCI (BC1, breast cancer): >20 µg/mL
- ED50 KB [3]: >20 µg/mL

Structure (SMILES): COc1cc(C=CC(=O)O[C@H]2[C@@H](O)[C@@H]3C[C@H](OC(=O)c4cc(OC)c(OC)c(OC)c4)C[C@H]2[N+]3(C)[O-])cc(OC)c1OC (stereo partly drawn) [Compound 4, 3α-(3,4,5-trimethoxybenzoyloxy)-6β-(3,4,5-trimethoxycinnamoyloxy)-7β-hydroxytropane N-oxide]
- IC50 (KB-V1, drug resistant KB; [10]): > 20 µg/mL
- ED50 KB-V1+ (KB-V1, drug resistant KB): >20 µg/mL
- IC50 (Lu1, lung cancer): > 20 µg/mL
- IC50 ([4]; Homo sapiens, SK-OV-3, read-out: IC50 SKOV3 (pGp − ve)): > 10 µM
- IC50 ([5]; Homo sapiens, read-out: IC50 BSKVLB (pGp + ve)): > 10 µM
- IC50 ([5]; read-out: IC50 SKVLB (pGp + ve), addition of adriamycin, Addition of 1 μm adriamycin): > 10 µM
- IC50 [1]: > 20 µg/mL
- IC50 (Col2, colon cancer): > 20 µg/mL
- IC50 [2]: > 20 µg/mL
- melting point: 118 to 121 °C
- IC50 (BC1, breast cancer): > 20 µg/mL
- IC50 [3]: > 20 µg/mL

Structure (SMILES): COc1cc(C=CC(=O)O[C@H]2C[C@@H]3C[C@H](OC(=O)Cc4cccc(O)c4)C[C@H]2N3C)cc(OC)c1OC [Compound 8, 3α-(3-hydroxyphenylacetoxy)-6β-(3,4,5-trimethoxycinnamoyloxy)-tropane]
- IC50 (KB-V1, drug resistant KB; [10]): > 20 µg/mL
- ED50 KB-V1+ (KB-V1, drug resistant KB): 1.9 µg/mL
- IC50 (Lu1, lung cancer): > 20 µg/mL
- IC50 [1]: 8.4 µg/mL (≈ 16.4 µM)
- IC50 (Col2, colon cancer): 13.4 µg/mL (≈ 26.2 µM)
- IC50 [2]: > 20 µg/mL
- melting point: 53 to 57 °C
- IC50 (BC1, breast cancer): > 20 µg/mL
- IC50 [3]: 14.7 µg/mL (≈ 28.7 µM)

Structure (SMILES): COc1cc2c(cc1OC)CN(CCc1ccc(NC(=O)c3cccc4c(=O)c5cccc(OC)c5[nH]c34)cc1)CC2 [GB120918, N-{4-[2-(1,2,3,4-tetrahydro-6,7-dimethoxy-2-isoquinolinyl)-ethyl]-phenyl}-9,10-dihydro-5-methoxy-9-oxo-4-acridine carboxamide, reference compound]
- IC50 [4, 11]: 8.1 µM
- IC50 ([5]; Homo sapiens, Addition of 1 μm adriamycin, read-out: IC50 SKVLB (pGp + ve), addition of adriamycin): 0.02 µM
- IC50 [5, 12]: 14 µM

Structure (SMILES): COc1cccc2c1C(=O)c1c(O)c3c(c(O)c1C2=O)C[C@@](O)(C(=O)CO)C[C@@H]3O[C@H]1C[C@H](N)[C@H](O)[C@H](C)O1 [adriamycin, reference compound]
- IC50 [4, 11]: 0.008 µM
- IC50 [5, 12]: 2.2 µM

Structure (SMILES): COc1cccc2c1C(=O)c1c(O)c3c(c(O)c1C2=O)C[C@@](O)(C(C)=O)C[C@@H]3O[C@H]1C[C@H](N)[C@H](O)[C@H](C)O1 [daunorubicin, reference compound]
- IC50 (CEM/VLB100 cells; CEM/VLB100 cells, read-out: IC50 value of the cytotoxic drug in the absence of modulator): 1 µM

Structure (SMILES): COc1ccc(CCN(C)CCCC(C#N)(c2ccc(OC)c(OC)c2)C(C)C)cc1OC (stereo not drawn) [verapamil, reference compound]
- IC50 (KB-V1 cells [6]; Homo sapiens, KB-V1, 72 h, read-out: IC50 KB-V1 (+), presence of vinblastine (1 μg/ml), 72 hours): 0.79 µM
- IC50 (KB-V1 cells [6]; Homo sapiens, KB-V1, 72 h, read-out: IC50 KB-V1 (−), absence of vinblastine, 72 hours): > 44 µM
- IC50 (KB-V1 cells [6]; read-out: IC50 KB-V1 (−), absence of vinblastine, 72 hours): 44 µM
- Calculated inhibition (vinblastine + reversing agent as single agents), KB-8-5, i.p. site (KB-8-5 cells [7]; [13]): 5.9%
- Calculated inhibition (vinblastine + reversing agent as single agents), KB-8-5, s.c. site (KB-8-5 cells [7]; [13]): 3.7%
- Observed inhibition from coadministration with vinblastine, KB-8-5, i.p. site (KB-8-5 cells [7]; [14]): 52 (P < 0.0001) %
- Observed inhibition from coadministration with vinblastine, KB-8-5, s.c. site (KB-8-5 cells [7]; [14]): 11.7 (P = 0.06) %
- Growth inhibition, single agent, KB-8-5, s.c. site (KB-8-5 cells [7]; vinblastine 100 μg/kg, reversing agents 0.136 mmol/kg): 1.4%
- Growth inhibition, single agent, KB-8-5, i.p. site (KB-8-5 cells [7]; vinblastine 100 μg/kg, reversing agents 0.136 mmol/kg, i.p. injection once daily days 3–6): 4.7%
- IC50 (KB-3 cells): 37 µM
- IC50 (CEM/VLB100 cells; CEM/VLB100, 48 h, read-out: IC50 Modulator only): > 15 µM
- IC50 (CEM/VLB100 cells; CEM/VLB100, read-out: IC50 (Modulator + Daunorubicin)): 0.5 µM
- IC50 (CEM/VLB100 cells; CEM/VLB100, read-out: IC50 (Modulator + Vinblastine)): 0.025 µM
- IC50 (KB-8-5 cells [8]): > 44 µM
- inhibition of cell growth when used in combination with vinblastine (KB-V1 cells [9]; KB-V1 or KB-8-5 cells in hollow fibers implanted into NCr nu/nu mice): less effective
- Calculated inhibition (vinblastine + reversing agent as single agents), KB-V1, i.p. site (KB-V1 cells [9]; [13]): 7.4% and 6.2%
- Calculated inhibition (vinblastine + reversing agent as single agents), KB-V1, s.c. site (KB-V1 cells [9]; [13]): 3.8% and 10.8%
- Observed inhibition from coadministration with vinblastine, KB-V1, s.c. site (KB-V1 cells [9]; vinblastine 250 μg/kg + reversing agent 0.136 mmol/kg): 7.8 (P = 0.73) % and 13.6 (P = 0.098) %
- Observed inhibition from coadministration with vinblastine, KB-V1, i.p. site (KB-V1 cells [9]; vinblastine 250 μg/kg + reversing agent 0.136 mmol/kg, i.p. injection once daily days 3–6): 60.3 (P < 0.0001) % and 56.6 (P < 0.0001) %

From patent publication US6989396B2, “Tropane alkaloid multidrug resistance inhibitors from Erythroxylum pervillei and use of the same” (The Board of Trustees of the University of Illinois, priority 2001, dated 2006)
